{"source": "patent US20040266732A1", "about": "“Therapeutic agents, methods, and treatments” (priority 2002, published 2004)", "format_in_all_cases": "cell-based, human", "key": {"[1]": {"system": "MCF7 Cell line (Breast Cancer)", "assay": "NCI three cell-line test", "conditions": "1(10^−4) Molar in growth medium, percent of growth of untreated control cells", "method": "(§1) The testing in this Example was performed by NCI, as per their 3-cell line panel test. The results are reported as the percent of the growth of the treated cells compared to the untreated control cells. The criterion for being an effective compound and for being subjected to further testing is that the tested compound reduce the growth of any one of the three cell lines to approximately 32% or less.\n(§2) The methods for conducting the test are described below in Example 3, except that the cells were exposed to a single concentration of MT103, at 1×10^−4 Molar, and colorimetric determinations were made with alamar blue (Biotechniques 21(5):780-782 (1996)).\n(§3) Methodology: The NCI conducted a test of the MT103 drug against 60 human cell lines, with a minimum of five concentrations of MT103 at 10-fold dilutions. A 48 hour continuous drug exposure was used, and a sulforhodamine B (SRB) protein assay was used to estimate cell viability and growth. The human tumor cell lines of the cancer screening panel were grown in RPMI 1640 medium containing 5% fetal bovine serum and 2 mM L-glutamine. Cells were inoculated into 96 well microtiter plates in 100 μL at plating densities ranging from 5,000 to 40,000 cells/well depending on the doubling time of individual cell lines. After cell inoculation, the microtiter plates are incubated at 37° C., 5% CO2, 95% air, and 100% relative humidity for 24 h prior to addition of experimental drugs. […]\n(§4) Following drug addition, the plates were incubated for an additional 48 h at 37° C., 5% CO2, 95% air, and 100% relative humidity. […] Bound stain was subsequently solubilized with 10 mM trizma base, and the absorbance was read on an automated plate reader at a wavelength of 515 nm. […] Using the seven absorbance measurements (time zero, (Tz), control growth, (C), and test growth in the presence of drug at the five concentration levels (Ti)), the percentage growth was calculated at each of the drug concentrations levels. Percentage growth inhibition was calculated as: […]"}, "[2]": {"system": "NCI-H460 Cell Line (Non-Small cell Lung)", "assay": "NCI three cell-line test", "conditions": "1(10^−4) Molar in growth medium, percent of growth of untreated control cells", "method": "as §1, §2, §3, §4"}, "[3]": {"system": "SF-268 Cell Line (Central Nervous System)", "assay": "NCI three cell-line test", "conditions": "1(10^−4) Molar in growth medium, percent of growth of untreated control cells", "method": "as §1, §2, §3, §4"}, "[4]": {"system": "MCF7, NCI-H460, SF-268", "assay": "NCI three cell-line test, all three cell lines", "conditions": "one concentration tested (1×10^−4 Molar)", "method": "as §1, §2\nMethodology: The NCI conducted a test of the MT103 drug against 60 human cell lines, with a minimum of five concentrations of MT103 at 10-fold dilutions. […]\nas §4"}}, "data": [{"smiles": "CC1(C)C2CC[C@@]1(CS(=O)(=O)N(C1CCCCC1)C1CCCCC1)C(O)C2", "note": "(stereo partly shown) [MT103]", "values": [{"measurement": "Growth, Percentage", "setting": "[1]", "result": 0, "unit": "%"}, {"measurement": "Growth, Percentage", "setting": "[2]", "result": 16, "unit": "%"}, {"measurement": "Growth, Percentage", "setting": "[3]", "result": 14, "unit": "%"}, {"measurement": "growth of all three cell lines", "setting": "[4]", "result": "≤ 16", "unit": "%"}]}]}
